Key:
[1] = Liver microsomes stability, rat; conditions: rat; for CLint scaled at 2 μM / Predicted hepatic CL / half-life at 2 μM / microsomal CLint at 2 μM: liver microsomes
[2] = Liver microsomes stability, mouse; conditions: for CLint scaled at 2 μM / half-life at 2 μM / microsomal CLint at 2 μM: male, microsomes; for CLint scaled at 2 μM / half-life at 2 μM / microsomal CLint at 2 μM / Remaining Percentage: mouse; for Predicted hepatic CL: mouse liver microsomes
Procedure: (§1) The objective of this study was to estimate in vitro metabolic stability of representative compounds of the application in pooled human and male mouse liver microsomes. The concentrations of parent compounds in reaction systems were evaluated by LC-MS/MS for estimating the stability in pooled human and male mouse liver microsomes. The in vitro intrinsic clearances of test compounds were determined as well.
(§2) A master solution in the “Incubation Plate” containing phosphate buffer, ultra-pure H2O, MgCl2 solution and liver microsomes was made according to Table 3. The mixture was pre-warmed at 37° C. water bath for 5 minutes.
(§3) 40 μL of 10 mM NADPH solution was added to each well. The final concentration of NADPH was 1 mM. The negative control samples were prepared by replacing NADPH with 40 μL of ultra-pure H2O. Samples were prepared in duplicate. Negative controls were prepared in singlet.
(§4) The reaction was started with the addition of 4 μL of 200 μM test compounds or control compounds to each master solution to get the final concentration of 2 μM. This study was performed in duplicate.
(§5) Aliquots of 50 μL were taken from the reaction solution at 0, 15, 30, 45 and 60 minutes. The reaction solutions were stopped by the addition of 4 volumes of cold methanol with IS (100 nM alprazolam, 200 nM imipramine, 200 nM labetalol and 2 μM ketoprofen). Samples were centrifuged at 3,220 g for 40 minutes. Aliquot of 90 μL of the supernatant was mixed with 90 μL of ultra-pure H2O and then was used for LC-MS/MS analysis.
(§6) LC/MS analysis was performed for all samples from this study using a Shimadzu liquid chromatograph separation system equipped with degasser DGU-20A5R; solvent delivery unit LC-30AD; system controller SIL-30AC; column oven CTO-30A; CTC Analytics HTC PAL System. Mass spectrometric analysis was performed using a Triple Quad™ 5500 instrument.
(§7) All calculations were carried out using Microsoft Excel. Peak areas were determined from extracted ion chromatograms. The slope value, k, was determined by linear regression of the natural logarithm of the remaining percentage of the parent drug vs. incubation time curve.
(§8) The in vitro half-life (in vitro t1/2) was determined from the slope value:
(§9) Conversion of the in vitro t1/2 (min) into the in vitro intrinsic clearance (in vitro CLint, in μL/min/mg proteins) was done using the following equation (mean of duplicate determinations): […]

[3] = target: T1, human 5-HT2A (h5-HT2A) receptor (Homo sapiens, UniProt P28223); experiment: FLIPR assay, human 5-HT2A receptor under agonist mode; assay type: cell-based; conditions: 5-HT2A (FLIPR); for RFU@10 μM: RFU=Fmax−Fmin; for EC50: read-out: EC50
T1 construct: expressed in transfected cells; cultured under G418 and hygromycin B selection
Procedure: I. Assessment of the Effect of Exemplary Compounds of Formula I Targeting on Human 5-HT2A (h5-HT2A) Receptor Under Agonist Mode
• 1. Cells were cultured in cell culture medium (DMEM containing 10% FBS, 1×penicillin-streptomycin 300 μg/ml G418 and 100 μg/ml hygromycin B) at 37° C., 5% (v/v) CO2. • 2. One day before the assays, the cells were detached using TrypLE™ Express and cells were counted using cell counter. Only cells with >85% viability were used for the assay. • 3. 20000 cells/well were seeded in 30 μl/well culture medium to a 384-well cell plate and cells were incubated overnight at 37° C., 5% (v/v) CO2. • 4. On the assay day, 2×dye solution was prepared following the manual of the FLIPR® Calcium 6 Assay Kit: i. The dye was diluted with assay buffer (20 mM HEPES in 1× HBSS, PH7.4); ii. Probenecid was added to the final concentration of 5 mM; iii. Vortex vigorously for 1-2 minutes. • 5. Medium was removed from cell plate by flicking the cell plate on towel papers. • 6. 10 μl of assay buffer and 10 μl of 2×dye solution was added to each well of the cell plate. • 7. The cell plate was placed on plate shaker, the plate was agitated at 600 rpm for 2 minutes. The plate was incubated at 37° C. for 2 hours followed by additional 15-minute incubation at 25° C. • 8. 3×compound in assay buffer was prepared: a. Reference compounds were diluted to required concentration with DMSO. The compounds were added to a 384-well compound plate; b. Serial dilutions were performed; c. 10 mM test compounds were added to the compound plate, and 3-fold serial dilutions were performed. d. Transfer 60 nl/well of compounds from source plate to a 384-well compound plate (Corning, 3657) by using an Echo; e. Add 20 μl/well assay buffer to the compound plate; f. Mix the plate on plate shaker for 2 mins; • 9. The cell plate, compound plate and tips were put into FLIPR, 10 μl of 3× compound was transferred to the cell plate per well with FLIPR.
• i. The normalized fluorescence reading (RFU) was calculated as shown below, where Fmax and Fmin stand for maximum and minimum of calcium signal during defined time window: RFU=Fmax−Fmin. • ii. Calculate the percentage activation using following equation:
[formula] • Iii. Calculate EC50 by fitting % activation against log of compound concentrations with Hill equation using XLfit.
Exemplary compounds of Formula I were evaluated functionally using FLIPR assay for their effect on h5-HT2A receptor under agonist mode.

[4] = Liver microsomes stability, human; conditions: for Predicted hepatic CL: human liver microsomes; for Remaining Percentage / CLint scaled at 2 μM / half-life at 2 μM / microsomal CLint at 2 μM: human; for CLint scaled at 2 μM / half-life at 2 μM / microsomal CLint at 2 μM: pooled liver microsomes
Procedure: as §1, §2, §3, §4, §5, §6, §7, §8, §9

T1 sequence (P28223 whole entry): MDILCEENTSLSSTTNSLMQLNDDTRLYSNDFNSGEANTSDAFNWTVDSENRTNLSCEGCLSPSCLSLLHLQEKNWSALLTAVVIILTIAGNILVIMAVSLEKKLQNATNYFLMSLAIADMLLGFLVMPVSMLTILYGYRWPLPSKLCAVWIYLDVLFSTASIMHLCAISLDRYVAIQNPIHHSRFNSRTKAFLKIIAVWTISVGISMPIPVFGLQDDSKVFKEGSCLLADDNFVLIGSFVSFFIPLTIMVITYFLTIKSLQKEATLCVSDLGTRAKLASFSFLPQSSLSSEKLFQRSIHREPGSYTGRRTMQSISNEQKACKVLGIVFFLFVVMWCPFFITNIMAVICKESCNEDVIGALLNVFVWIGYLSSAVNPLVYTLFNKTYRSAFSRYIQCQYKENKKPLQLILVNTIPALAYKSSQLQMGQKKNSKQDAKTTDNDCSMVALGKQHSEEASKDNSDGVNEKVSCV

SMILES | Remaining Percentage ([1]; With NADPH, 0 min) | Remaining Percentage ([1]; With NADPH, 30 min) | Remaining Percentage ([1]; With NADPH, 60 min) | Remaining Percentage ([1]; Without NADPH, 0 min) | Remaining Percentage ([1]; Without NADPH, 30 min) | Remaining Percentage ([1]; Without NADPH, 60 min) | CLint scaled at 2 μM [1] | Predicted hepatic CL [1] | half-life at 2 μM [1] | microsomal CLint at 2 μM [1] | CLint scaled at 2 μM [2] | half-life at 2 μM [2] | microsomal CLint at 2 μM [2] | Predicted hepatic CL [2] | Remaining Percentage ([2]; With NADPH, 0 min) | Remaining Percentage ([2]; With NADPH, 30 min) | Remaining Percentage ([2]; With NADPH, 60 min) | Remaining Percentage ([2]; Without NADPH, 0 min) | Remaining Percentage ([2]; Without NADPH, 30 min) | Remaining Percentage ([2]; Without NADPH, 60 min) | other results
[2H]C([2H])([2H])Oc1ccc2c(c1)C(CCN(C)C)CN2 (stereo not shown) [Compound I-11, 2-(5-(Methoxy-d3)indolin-3-yl)-N,N-dimethylethan-1-amine] | 100.00% | 22.43% | 6.59% | 100.00% | 102.53% | 85.67% | 162 mL/min/kg | 41.20 mL/min/kg | 15.3 min | 90.7 µL/min/mg | 334 mL/min/kg | 18.2 min | 76.3 µL/min/mg | 70.89 mL/min/kg | 100.00% | 31.50% | 10.14% | 100.00% | 94.39% | 80.37% | RFU@10 μM [3]: 980; EC50 [3]: 19 nM; Predicted hepatic CL [4]: 12.66 mL/min/kg; Remaining Percentage ([4]; With NADPH, 0 min): 100.00%; Remaining Percentage ([4]; With NADPH, 30 min): 72.72%; Remaining Percentage ([4]; With NADPH, 60 min): 45.89%; Remaining Percentage ([4]; Without NADPH, 0 min): 100.00%; Remaining Percentage ([4]; Without NADPH, 30 min): 97.58%; Remaining Percentage ([4]; Without NADPH, 60 min): 92.20%; CLint scaled at 2 μM [4]: 32.6 mL/min/kg; half-life at 2 μM [4]: 53.4 min; microsomal CLint at 2 μM [4]: 26 µL/min/mg
CN(C)CCC1CNc2ccccc21 (stereo not shown) [II-2, 2-(Indolin-3-yl)-N,N-dimethylethan-1-amine] | 100.00% | 26.32% | 10.29% | 100.00% | 92.41% | 83.54% | 136 mL/min/kg | 39.25 mL/min/kg | 18.3 min | 75.8 µL/min/mg | 165 mL/min/kg | 36.7 min | 37.7 µL/min/mg | 58.25 mL/min/kg | 100.00% | 57.37% | 32.23% | 100.00% | 99.08% | 86.24% | RFU@10 μM [3]: 544; EC50 [3]: 1230 nM; Predicted hepatic CL [4]: 9.09 mL/min/kg; Remaining Percentage ([4]; With NADPH, 0 min): 100.00%; Remaining Percentage ([4]; With NADPH, 30 min): 87.48%; Remaining Percentage ([4]; With NADPH, 60 min): 67.85%; Remaining Percentage ([4]; Without NADPH, 0 min): 100.00%; Remaining Percentage ([4]; Without NADPH, 30 min): 100.69%; Remaining Percentage ([4]; Without NADPH, 60 min): 86.47%; CLint scaled at 2 μM [4]: 16.2 mL/min/kg; half-life at 2 μM [4]: 107 min; microsomal CLint at 2 μM [4]: 12.9 µL/min/mg
